{"source": "paper PMC5051273", "about": "(Phytotherapy research : PTR, 2015)", "target": "mammalian target of rapamycin (mTOR) (Homo sapiens, UniProt P42345)", "assay": "Invitrogen Z'-LYTE kinase assay, five concentrations", "assay_type": "biochemical", "data": [{"compound": "C/C=C(/C=O)[C@@H](CC=O)CC(=O)OCCc1ccc(O)cc1", "note": "[oleocanthal]", "values": [{"measurement": "IC50", "value": 708, "unit": "nM"}]}]}
